Experimental data published in patent US20150005347A1, “NITROGEN-CONTAINING HETEROCYCLIC DERIVATIVE HAVING 2-IMINO GROUP AND PEST CONTROL AGENT INCLUDING THE SAME” (MEIJI SEIKA PHARMA CO., LTD., priority 2012, published 2015).

What was measured:
Format in all cases: in vivo
Plutella xylostella = Plutella xylostella control test, cabbage leaf disk foliar spray; conditions: for mortality at 100 ppm / mortality at 500 ppm: Plutella xylostella, 72 h, second instar larvae, three days after release, read-out: mortality of larvae; for mortality at 100 ppm: foliar treatment at 100 ppm; for mortality at 500 ppm: foliar treatment at 500 ppm; for % Mortality, Test Example1 Plutella xylostella: foliar treatment
Procedure: Test Example 1 Plutella xylostella Control Test
(§1) A leaf disk having a diameter of 5.0 cm was cut out from a cabbage in pot culture, and a drug solution of the compound of the present invention at a predetermined concentration, which had been prepared so as to be a 50% acetone water (0.05% Tween20 available), was sprayed to the leaf disk. After an air drying process, second instar larvae were released thereto. Thereafter, the larvae were left to stand in a thermostatic chamber (16 hours of light period-8 hours of dark period) at 25° C. […] Test in duplicate.
mortality larvae(%)={number of dead larvae/(number of survived larvae+number of dead larvae)}×100

Aphis gossypii = test: Pest control test of Aphis gossypii, cucumber leaf disk foliar spray; conditions: for mortality at 100 ppm / mortality at 500 ppm: Aphis gossypii, 72 h, first instar larvae, three days after release; for mortality at 100 ppm: foliar treatment at 100 ppm, read-out: mortality of larvae; for mortality at 500 ppm: foliar treatment at 500 ppm; for % Mortality, Test Example3 Aphis gossypii: foliar treatment
Procedure: Test Example 3 Pest Control Test of Aphis gossypii
as §1, with “2.0” for “5.0”, “cucumber” for “cabbage”, “first” for “second”
(§2) Mortality of larvae(%)={number of dead larvae/(number of survived larvae+number of dead larvae)}×100

Laodelphax striatella [1] = test: Pest control test of Laodelphax striatella, foliar spray on rice seedling; conditions: Laodelphax striatellus, 144 h; foliar treatment at 1.25 ppm; second instar larvae; six days after release; read-out: mortality of larvae
Procedure: Test Example 6 Pest Control Test of Laodelphax striatella
as §1, with “A” for “A leaf disk having a diameter of 5.0 cm was cut out from a cabbage in pot culture, and a”, “was foliar” for “was”, “a rice seedling in pot culture.” for “the leaf disk.”
as §2

Musca domestica = test: Pest control test of Musca domestica adults, sucrose pledget; conditions: 50 ppm in 40% sucrose liquid; four days after release
Procedure: Test Example 21 Pest Control Test of Musca domestica
A drug solution of the compound of the present invention, which had been adjusted to be 50 ppm with a 40% sucrose liquid, was adsorbed on a pledget, and the pledget was put into a vial. Two adults reared indoors were released thereto. Thereafter, the adults were left to stand indoors at room temperature of 25° C. […] When two adults were all agonized in death, it was judged to be effective.

Spodoptera litura = test: Pest control test against Spodoptera litura, cabbage leaf disk foliar spray; conditions: for % Mortality, Test Example2 Spodoptera litura: foliar treatment, 100 ppm
Procedure: Test Example 2 Pest Control Test Against Spodoptera litura
as §1, with “third” for “second”
as §2

[2] = system: Frankliniella occidentalis; test: Pest control test of Frankliniella occidentalis, kidney bean leaf disk foliar spray; conditions: for % Mortality, Test Example7 Frankliniella occidentalis: foliar treatment, 100 ppm
Description: Test Example 7 Pest Control Test of Frankliniella occidentalis
as §1, with “2.8” for “5.0”, “kidney bean” for “cabbage”, “first” for “second”
as §2

[3] = system: Trigonotylus caelestialium; test: Pest control test of Trigonotylus caelestialium, wheat seedling dipping
Description: Test Example 8 Pest Control Test of Trigonotylus caelestialium
Wheat seedling leaves and stems four days after the dissemination of seedlings were dipped for 30 seconds in a drug solution of the compound of the present invention at a predetermined concentration, which had been prepared so as to be a 50% acetone water (0.05% Tween20 available). After an air drying process, the wheat seedling leaves and stems were placed into a glass tube, and two second instar larvae of Trigonotylus caelestialium were released to the same glass tube. After the larvae were released, the tube was lidded to leave the larvae to stand in a thermostatic chamber at 25° C. In order to supply water to the wheat during the test, water was given to the wheat from the bottom of the glass tube.
as §2

Laodelphax striatella [4] = test: Pest control test of Laodelphax striatella, soil irrigation treatment of rice seedling; conditions: soil irrigation treatment
Description: <Soil Irrigation Treatment Test>
Test Example 10 Pest Control Test of Laodelphax striatellua
(§3) A rice seedling in pot culture was subjected to soil irrigation treatment with a drug solution of the compound of the present invention at a predetermined concentration, which had been prepared so as to be a 10% acetone water. Three days after the treatment, ten second instar larvae of Laodelphax striatella were each released thereto. Thereafter, the larvae were left to stand in a thermostatic chamber (16 hours of light period-8 hours of dark period) at 25° C. […] The test was performed in duplicate.
as §2

Nilaparvata lugens = test: Pest control test of Nilaparvata lugens, soil irrigation treatment; conditions: soil irrigation treatment
Procedure: Test Example 12 Pest Control Test of Nilaparvata lugens
as §3, with “Nilaparvata lugens” for “Laodelphax striatella”
as §2

[5] = system: Nilaparvata lugens exhibiting drug resistance to imidacloprid; conditions: soil irrigation; for Insecticidal effects against Nilaparvata lugens (mortality of larvae %), Drug resistant populations three days after the treatment: Rate 0.05 mg/pot; for insecticidal effects against drug resistant Nilaparvata lugens: imidacloprid-resistant; for mortality of larvae against drug resistant populations compared with susceptible populations of Nilaparvata lugens: imidacloprid-resistant vs susceptible
Procedure: Test Example 18 Pest Control Test of Drug-Resistant Nilaparvata lugens
as §3, with “Three days after the treatment, ten second instar larvae of Laodelphax striatella were each released thereto.” left out
as §2
(§4) Further, for the origin of test pests, bugs collected outdoors within the Kumamoto prefecture in 2007 as the drug resistant Nilaparvata lugens, and bugs collected within the Kagoshima prefecture and then successively reared indoors for a long time as the imidacloprid susceptible populations of Nilaparvata lugens were used.

[6] = system: imidacloprid susceptible populations of Nilaparvata lugens; test: Soil irrigation test, imidacloprid susceptible populations of Nilaparvata lugens; conditions: Rate 0.05 mg/pot
Procedure: as §3, with “Three days after the treatment, ten second instar larvae of Laodelphax striatella were each released thereto.” left out
as §2
Further, for comparison, the test against some population of Nilaparvata lugens which is highly susceptible to imidacloprid was performed by the same method as described above, and the results thereof are shown in Table 43.
as §4

In the case of CN=C(/N=c1\ccccn1Cc1ccc(Cl)nc1)C(F)(F)F [Compound 1-42, N-[1-((6-chloropyridin-3-yl)methyl)pyridin-2(1H)-ylidene]-2,2,2-trifluoro-N′-methylacetimidamide], the mortality at 100 ppm (Plutella xylostella) is reported as no less than 80%, the mortality at 500 ppm (Plutella xylostella) is reported as no less than 80% and the mortality at 100 ppm (Aphis gossypii) is reported as no less than 80%. For the same compound, the mortality at 500 ppm (Aphis gossypii) was no less than 80%, the mortality at 1.25 ppm (Laodelphax striatella [1]) was no less than 80% and the “activity against adults (effective when two adults were all agonized in death)” value (from here on “activity against adults”) (Musca domestica) was “all the adults are agonized in death”.
ON=C(/N=c1\ccccn1Cc1ccc(Cl)nc1)C(F)(F)F [Compound 1-499, N-[1-((6-chloropyridin-3-yl)methyl)pyridin-2(1H)-ylidene]-2,2,2-trifluoro-N′-hydroxyacetimidamide] was tested, and the mortality at 100 ppm (Plutella xylostella) was no less than 80%, the mortality at 500 ppm (Plutella xylostella) was no less than 80% and the mortality at 500 ppm (Spodoptera litura; Spodoptera litura, 72 h, foliar treatment at 500 ppm, third instar larvae, three days after release, read-out: mortality of larvae) was no less than 80%. The mortality at 100 ppm (Aphis gossypii) was no less than 80%, the mortality at 500 ppm (Aphis gossypii) was no less than 80% and the mortality at 1.25 ppm (Laodelphax striatella [1]) was no less than 80%. For the same compound, the mortality at 500 ppm ([2]; Frankliniella occidentalis, 72 h, foliar treatment at 500 ppm, first instar larvae, three days after release, read-out: mortality of larvae) was no less than 80%.
Compound O=C(ON=C(/N=c1\ccccn1Cc1ccc(Cl)nc1)C(F)(F)F)c1ccccc1 [Compound 1-519, N-(benzoyloxy)-N-[1-((6-chloropyridin-3-yl)methyl)pyridin-2(1H)-ylidene]-2,2,2-trifluoroacetimidamide] has a mortality at 100 ppm (Plutella xylostella) of no less than 80%, a mortality at 500 ppm (Plutella xylostella) of no less than 80% and a mortality at 100 ppm (Aphis gossypii) of no less than 80%. It also gave a mortality at 500 ppm (Aphis gossypii) of no less than 80% and a mortality at 1.25 ppm (Laodelphax striatella [1]) of no less than 80%.
Fc1ccc(Cn2ccccc2=NC(=S)C(F)(F)F)cn1 [Compound 3-20] was tested, and the “% Mortality, Test Example1 Plutella xylostella” value (Plutella xylostella; 20 ppm) was 0%, the “% Mortality, Test Example1 Plutella xylostella” value (Plutella xylostella; 100 ppm) was 55% and the “% Mortality, Test Example2 Spodoptera litura” value (Spodoptera litura) was 30%. The “% Mortality, Test Example3 Aphis gossypii” value (Aphis gossypii; 0.313 ppm) was 15%, the “% Mortality, Test Example3 Aphis gossypii” value (Aphis gossypii; 1.25 ppm) was 100% and the “% Mortality, Test Example3 Aphis gossypii” value (Aphis gossypii; 5 ppm) was 100%. The “% Mortality, Test Example3 Aphis gossypii” value (Aphis gossypii; 20 ppm) was 100%, the “% Mortality, Test Example3 Aphis gossypii” value (Aphis gossypii; 100 ppm) was 100% and the “% Mortality, Test Example7 Frankliniella occidentalis” value [2] was 45%. For the same compound, the “% Mortality, Test Example8 Trigonotylus caelestialium” value ([3]; 2 ppm) was 50%, the “% Mortality, Test Example8 Trigonotylus caelestialium” value ([3]; 10 ppm) was 100% and the “% Mortality, Test Example8 Trigonotylus caelestialium” value ([3]; 50 ppm) was 100%. The “% Mortality, Test Example 10 Laodelphax striatella” value (Laodelphax striatella [4]; 0.05 mg/pot) was 90%, the “% Mortality, Test Example 12 Nilaparvata lugens” value (Nilaparvata lugens; 0.01 mg/pot) was 100% and the “% Mortality, Test Example 12 Nilaparvata lugens” value (Nilaparvata lugens; 0.05 mg/pot) was 100%. The “Insecticidal effects against Nilaparvata lugens (mortality of larvae %), Drug resistant populations three days after the treatment” value [5] was 100%, the “insecticidal effects against drug resistant Nilaparvata lugens” value [5] was “high insecticidal effects” and the “mortality of larvae against drug resistant populations compared with susceptible populations of Nilaparvata lugens” value [5] was “equivalent mortality of larvae”. The “Insecticidal effects against Nilaparvata lugens (mortality of larvae %), Susceptible populations three days after the treatment” value [6] was 100% and the “activity against adults” value (Musca domestica) was “all the adults are agonized in death”.
In the case of FC(F)(F)C(=S)N=c1ccccn1Cc1ccc(Br)nc1 [Compound 4-20], the “% Mortality, Test Example1 Plutella xylostella” value (Plutella xylostella; 20 ppm) is reported as 70%, the “% Mortality, Test Example1 Plutella xylostella” value (Plutella xylostella; 100 ppm) is reported as 100% and the “% Mortality, Test Example2 Spodoptera litura” value (Spodoptera litura) is reported as 20%. The “% Mortality, Test Example3 Aphis gossypii” value (Aphis gossypii; 1.25 ppm) was 100%, the “% Mortality, Test Example3 Aphis gossypii” value (Aphis gossypii; 5 ppm) was 100% and the “% Mortality, Test Example3 Aphis gossypii” value (Aphis gossypii; 100 ppm) was 100%. For the same compound, the “% Mortality, Test Example7 Frankliniella occidentalis” value [2] was 60%, the “% Mortality, Test Example8 Trigonotylus caelestialium” value ([3]; 2 ppm) was 33% and the “% Mortality, Test Example8 Trigonotylus caelestialium” value ([3]; 10 ppm) was 100%. The “% Mortality, Test Example8 Trigonotylus caelestialium” value ([3]; 50 ppm) was 100%, the “% Mortality, Test Example 10 Laodelphax striatella” value (Laodelphax striatella [4]; 0.005 mg/pot) was 35% and the “% Mortality, Test Example 10 Laodelphax striatella” value (Laodelphax striatella [4]; 0.01 mg/pot) was 100%. For the same compound, the “% Mortality, Test Example 10 Laodelphax striatella” value (Laodelphax striatella [4]; 0.05 mg/pot) was 100%, the “% Mortality, Test Example 12 Nilaparvata lugens” value (Nilaparvata lugens; 0.01 mg/pot) was 96% and the “% Mortality, Test Example 12 Nilaparvata lugens” value (Nilaparvata lugens; 0.05 mg/pot) was 100%. The “Insecticidal effects against Nilaparvata lugens (mortality of larvae %), Drug resistant populations three days after the treatment” value [5] was 100%, the “insecticidal effects against drug resistant Nilaparvata lugens” value [5] was “high insecticidal effects” and the “mortality of larvae against drug resistant populations compared with susceptible populations of Nilaparvata lugens” value [5] was “equivalent mortality of larvae”. The “Insecticidal effects against Nilaparvata lugens (mortality of larvae %), Susceptible populations three days after the treatment” value [6] was 95% and the “activity against adults” value (Musca domestica) was “all the adults are agonized in death”.
In the case of Fc1cc(Cn2ccccc2=NC(=S)C(F)(F)F)cnc1Cl [Compound 5-20], the “% Mortality, Test Example1 Plutella xylostella” value (Plutella xylostella; 5 ppm) is reported as 20%, the “% Mortality, Test Example1 Plutella xylostella” value (Plutella xylostella; 20 ppm) is reported as 100% and the “% Mortality, Test Example1 Plutella xylostella” value (Plutella xylostella; 100 ppm) is reported as 100%. The “% Mortality, Test Example2 Spodoptera litura” value (Spodoptera litura) was 60%, the “% Mortality, Test Example3 Aphis gossypii” value (Aphis gossypii; 1.25 ppm) was 55% and the “% Mortality, Test Example3 Aphis gossypii” value (Aphis gossypii; 5 ppm) was 100%. The “% Mortality, Test Example7 Frankliniella occidentalis” value [2] was 50%, the “% Mortality, Test Example8 Trigonotylus caelestialium” value ([3]; 10 ppm) was 17% and the “% Mortality, Test Example 10 Laodelphax striatella” value (Laodelphax striatella [4]; 0.005 mg/pot) was 26%. For the same compound, the “% Mortality, Test Example 10 Laodelphax striatella” value (Laodelphax striatella [4]; 0.01 mg/pot) was 52%, the “% Mortality, Test Example 10 Laodelphax striatella” value (Laodelphax striatella [4]; 0.05 mg/pot) was 95% and the “% Mortality, Test Example 12 Nilaparvata lugens” value (Nilaparvata lugens; 0.01 mg/pot) was 90%. The “% Mortality, Test Example 12 Nilaparvata lugens” value (Nilaparvata lugens; 0.05 mg/pot) was 100%, the “Insecticidal effects against Nilaparvata lugens (mortality of larvae %), Drug resistant populations three days after the treatment” value [5] was 100% and the “insecticidal effects against drug resistant Nilaparvata lugens” value [5] was “high insecticidal effects”. The “mortality of larvae against drug resistant populations compared with susceptible populations of Nilaparvata lugens” value [5] was “equivalent mortality of larvae”, the “Insecticidal effects against Nilaparvata lugens (mortality of larvae %), Susceptible populations three days after the treatment” value [6] was 91% and the “activity against adults” value (Musca domestica) was “all the adults are agonized in death”.
